Source: PMC7297817, “Pharmacological Characterization of a Betaine/GABA Transporter 1 (BGT1) Inhibitor Displaying an Unusual Biphasic Inhibition Profile and Anti-seizure Effects” (Neurochemical Research, 2020)
Entries after “also recorded” stand apart in the source; their conditions may differ. Read-outs that look alike come from different tables or passages of the source.

What was measured:
hBGT1 = target: T1, hBGT1 (Homo sapiens, UniProt P48065); assay: [3H]GABA uptake at hBGT1 transiently expressed in tsA201 cells; assay type: cell-based; conditions: for IC50 / inhibition profile (mono-/biphasic): 30 nM [3H]GABA, 3 min; for Frac: proportion of maximal response due to the more potent phase; for inhibition profile (mono-/biphasic): F test; for preferred curve fitting: in the presence of 10 μM ATP
T1 construct: expressed in transfected cells; host or cells: tsA201 (transient)
T1 sequence (P48065 1-614): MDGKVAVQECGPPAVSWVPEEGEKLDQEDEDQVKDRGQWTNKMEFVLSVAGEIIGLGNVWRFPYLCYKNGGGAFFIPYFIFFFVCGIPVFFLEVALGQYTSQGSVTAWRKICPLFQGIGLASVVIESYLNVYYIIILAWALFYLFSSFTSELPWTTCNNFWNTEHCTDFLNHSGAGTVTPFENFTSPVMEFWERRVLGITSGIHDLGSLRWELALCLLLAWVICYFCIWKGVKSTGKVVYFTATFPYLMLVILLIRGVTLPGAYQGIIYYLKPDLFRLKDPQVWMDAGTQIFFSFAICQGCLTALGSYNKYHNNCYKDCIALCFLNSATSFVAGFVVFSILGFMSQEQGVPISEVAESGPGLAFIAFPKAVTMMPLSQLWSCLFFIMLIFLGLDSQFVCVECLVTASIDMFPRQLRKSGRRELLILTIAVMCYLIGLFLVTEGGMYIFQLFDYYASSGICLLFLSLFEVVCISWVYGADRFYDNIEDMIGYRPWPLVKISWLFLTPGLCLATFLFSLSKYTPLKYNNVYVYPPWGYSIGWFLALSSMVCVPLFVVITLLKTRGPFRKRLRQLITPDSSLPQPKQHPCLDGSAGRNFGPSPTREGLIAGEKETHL
Protocol: The tsA201 cell line was used for transient expression while the MDCK II cell line express BGT1 endogenously. Both cell lines were cultured as described. tsA201 cells were transfected with DNA constructs (8 μg per 10 cm dish if not otherwise mentioned) using 40 μL PolyFect transfection reagent according to the manufacturer’s protocol (Qiagen, Venlo, Netherlands). The DNA constructs encoding hBGT1, hGAT1-3 [36], the mutated constructs hBGT1 Q299 and hGAT3 L314Q described previously, and hBGT Y453A were synthesized and sequence validated by Genscript (NJ, USA).
The [^3H]GABA competition uptake assay was performed as previously described. […] Studies related to the inhibition curves with GABA and BPDBA at hBGT1 were obtained both with and without the presence of 10 μM ATP during the [^3H]GABA uptake assay.
All compounds, except BAPTA/AM, were also present at the same concentration during the course of the actual [^3H]GABA uptake assay.
The [^3H]GABA uptake data was normalized to the percentage of total uptake in the individual experiments in the presence of the lowest compound concentration or no compound present. Data presented is the pooled data of at least three independent experiments with three technical replicates. Concentration–response curves (CRCs) were fitted with GraphPad Prism (version 8.2.1, Yosemite, GraphPad Software, San Diego, CA, USA) by non-linear regression to the sigmoidal concentration response model: Y=Bottom+(Top-Bottom)/1+10^LogIC50-X∗nH where Top is the Top plateau, Bottom is the Bottom plateau, X is the logarithm of the concentration of the compound, LogIC50 is the concentration giving a response halfway between Top and Bottom,and nH is the Hill slope.
The best fit for CRCs obtained with the [^3H]GABA uptake assay was identified by the extra-sum-of-squares F test (for convenience referred to as F test).

[1] = tested on: tsA201 cells transiently expressing hBGT1; assay: Fluo-4 Ca2+-assay in tsA201 cells transiently expressing hBGT1; assay type: cell-based, human; conditions: within the 3 min timeframe; blocked by BAPTA/AM
Protocol: Emission was recorded for 20 s. before adding the compounds (at 4 × concentrations) to the HBSS-HEPES buffer to determine the baseline. […] Data presented is the pooled data of at least three independent experiments with three technical replicates. Changes in fluorescence units (ΔFU) were determined as the maximum fluorescent signal within the 190 s minus the average of the baseline.

[2] = tested on: 74 different neuroreceptors and ion channels; conditions: adrenergic, GABAergic and dopaminergic receptors included; cited from earlier work
[3] = read-out: IC50, low affinity component (high IC50), biphasic fit, tsA201, 8 μg cDNA
[4] = biphasic fit, tsA201, 8 μg cDNA, read-out: IC50, low affinity component (high IC50)
[5] = monophasic fit (biphasic n.s.), read-out: IC50

`Cc1ccsc1C(=CCCN(C)[C@@H]1CCCC[C@@H]1C(=O)O)c1sccc1C` [(1S,2R)-5a, (1S,2R)-2-((4,4-bis(3-methylthiophen-2-yl)but-3-en-1-yl)(methyl)amino)cyclohexane-1-carboxylic acid] showed an IC50 (hBGT1; IC50, high affinity component (low IC50), biphasic fit, tsA201, 8 μg cDNA) of 4.7 µM, a Frac (hBGT1; 8 μg cDNA) of 0.28 and an IC50 (hBGT1; [3]) of 370 µM.

With `Cc1ccsc1C(CCCN(C)[C@@H]1CCCc2onc(O)c21)c1sccc1C` [(R)-EF1502, (R)-4-((4,4-bis(3-methylthiophen-2-yl)butyl)(methyl)amino)-4,5,6,7-tetrahydrobenzo[d]isoxazol-3-ol, reference compound] the “inhibition profile (mono-/biphasic)” value (hBGT1) was “biphasic CRC”, the nH1 (hBGT1; Hill slope of first phase, 8 μg cDNA) was “–0.79” and the nH2 (hBGT1; Hill slope of second phase, 8 μg cDNA) was “–2.35”. It also gave an IC50 (hBGT1; [4]) of 190 µM, an IC50 (hBGT1; biphasic fit, tsA201, 8 μg cDNA, read-out: pIC50 ± S.E.M., high affinity component (converted)) of 2.45 µM and a Frac (hBGT1; 8 μg cDNA) of 0.30.

With `COc1ccccc1C1(O)CCN(CCCn2c3ccccc3c3ccccc32)CC1` [NNC 05-2090, 1-[3-(9H-Carbazol-9-yl)propyl]-4-(2-methoxyphenyl)-4-piperidinol, reference compound] the “inhibition profile (mono-/biphasic)” value (hBGT1) was “did not inhibit hBGT1 in a biphasic manner” and the IC50 (hBGT1; [5]) was 117 µM.

In the case of `NCCCC(=O)O` [GABA, γ-Aminobutyric acid], the “inhibition profile (mono-/biphasic)” value (hBGT1) is reported as “monophasic” and the preferred curve fitting (hBGT1) is reported as “monophasic fit”.

For `Cc1ccsc1C(=CCCN(C)[C@@H]1CCCC[C@H]1C(=O)O)c1sccc1C` [(1R,2R)-4a, (1R,2R)-2-((4,4-bis(3-methylthiophen-2-yl)but-3-en-1-yl)(methyl)amino)cyclohexane-1-carboxylic acid], the IC50 (hBGT1; pIC50 ± S.E.M., high affinity component, biphasic fit, tsA201, 8 μg cDNA) was 3.39 µM, the Frac (hBGT1; 8 μg cDNA) was 0.19 and the IC50 (hBGT1; [3]) was 566 µM.

For `Nc1ncnc2c1ncn2[C@@H]1O[C@H](COP(=O)(O)OP(=O)(O)OP(=O)(O)O)[C@@H](O)[C@H]1O` [ATP, adenosine 5′-triphosphate, reference compound], the “decrease of total [3H]GABA uptake” value (hBGT1; ATP present during uptake (10 μM per methods)) was 9% and the “intracellular Ca2+ increase” value [1] was “induced a Ca^2+ increase”.

For “N-[4,4-bis(3-methyl-2-thienyl)-3-butenyl]-3-hydroxy-4-(methylamino)-4,5,6,7-tetrahydrobenzo[d]isoxazol-3-ol [EF1502]”, the “activity at a broad range of neurotransmitter systems” value [2] is listed as “completely devoid of any activity”.

In the case of `O=C(NC1CCN(Cc2ccccc2)CC1)c1ccc(Cl)cc1Cl` [BPDBA, N-(1-benzyl-4-piperidinyl)-2,4-dichlorobenzamide, reference compound], the “inhibition profile (mono-/biphasic)” value (hBGT1) is reported as “monophasic; also recorded: did not inhibit hBGT1 in a biphasic manner”, the preferred curve fitting (hBGT1) is reported as “monophasic fit” and the IC50 (hBGT1; [5]) is reported as 14.8 µM. The IC50 (hBGT1; monophasic fit (biphasic n.s.), read-out: pIC50 ± S.E.M. (converted)) was 15.1 µM.

For `CN(CCC=C1c2ccccc2CCc2ccccc21)[C@@H]1CCCC[C@@H]1C(=O)O` [(1R,2S)-5c, (1S,2R)-2-((3-(10,11-dihydro-5H-dibenzo[a,d][7]annulen-5-ylidene)propyl)(methyl)amino)cyclohexane-1-carboxylic acid], the IC50 (hBGT1; biphasic fit, tsA201, 8 μg cDNA, read-out: IC50, high affinity component (low IC50)) was 11.2 µM, the IC50 (hBGT1; [4]) was 819 µM and the Frac (hBGT1; 8 μg cDNA) was 0.26.
